pIC50: −log10 of the molar value.
Columns and labels:
HeLa cells [1] = assay type: cell-based, human
HeLa cells [2] = experiment: cells; assay type: cell-based; details: Homo sapiens
[3] = test system: retrograde transport of Shiga toxin subunit B (StxB); assay type: cell-based

| SMILES | R (Stx), protective index (HeLa cells [1]) | pIC50 (HeLa cells [2]) | retrograde transport, % control [3] [%] |
| --- | --- | --- | --- |
| Cc1ccc(C2N(C)c3ccccc3C(=O)N2c2ccccc2I)s1 (stereo not shown) [Compound 55, 3-(2-Iodophenyl)-1-methyl-2-(5-methylthiophen-2-yl)-2,3-dihydroquinazolin-4(1H)-one] | 25 | 5.27 | – |
| CSc1ccc(C2Nc3ccccc3C(=O)N2c2ccccc2)s1 (stereo not shown) [Compound 17, 2-(5-(Methylthio)thiophen-2-yl)-3-phenyl-2,3-dihydroquinazolin-4(1H)-one] | 43 | – | 22.8 |
| Cc1ccc(C2N(C)c3ccccc3C(=O)N2c2ccccc2F)s1 (stereo not shown) [Compound 58, 3-(2-Fluorophenyl)-1-methyl-2-(5-methylthiophen-2-yl)-2,3-dihydroquinazolin-4(1H)-one] | 25 | 5.26 | – |
| CN1c2ccccc2C(=O)N(c2ccccc2)C1c1ccc(CN=[N+]=[N-])s1 (stereo not shown) [Compound 62, 2-(5-(Azidomethyl)thiophen-2-yl)-1-methyl-3-phenyl-2,3-dihydroquinazolin-4(1H)-one] | – | 4.92 | – |
| Cc1ccc(C2Nc3ccccc3C(=O)N2c2ccccc2Cl)s1 (stereo not shown) [Compound 32, 3-(2-Chlorophenyl)-2-(5-methylthiophen-2-yl)-2,3-dihydroquinazolin-4(1H)-one] | 68 | – | – |
| Cc1nc(-c2ccc(C3N(C)c4ccccc4C(=O)N3c3ccccc3)s2)cs1 (stereo not shown) [Compound 42, 1-Methyl-2-(5-(2-methylthiazol-4-yl)thiophen-2-yl)-3-phenyl-2,3-dihydroquinazolin-4(1H)-one] | 85 | – | 0.0 |
| CN1c2ccccc2C(=O)N(c2ccccc2)C1c1ccc(-c2cccs2)s1 (stereo not shown) [Compound 39, 2-([2,2′-Bithiophen]-5-yl)-1-methyl-3-phenyl-2,3-dihydroquinazolin-4(1H)-one] | 36 | – | 6.2 |
| CN1c2ccccc2C(=O)N(c2ccccc2)C1c1ccc(Br)s1 (stereo not shown) [Compound 43, 2-(5-Bromothiophen-2-yl)-1-methyl-3-phenyl-2,3-dihydroquinazolin-4(1H)-one] | 40 | – | – |
| Cc1nc(-c2ccc(C3N(C)c4ccccc4C(=O)N3c3ccccc3C(=O)c3ccccc3)s2)cs1 (stereo not shown) [Compound 65, 3-(2-Benzoylphenyl)-1-methyl-2-(5-(2-methylthiazol-4-yl)thiophen-2-yl)-2,3-dihydroquinazolin-4(1H)-one] | – | 5.52 to 6.00 | – |
| COc1ccccc1N1C(=O)c2ccccc2N(C)C1c1ccc(C)s1 (stereo not shown) [Compound 56, 3-(2-Methoxyphenyl)-1-methyl-2-(5-methylthiophen-2-yl)-2,3-dihydroquinazolin-4(1H)-one] | 26 | 5.27 | – |
| C=CCOC(=O)c1ccccc1N1C(=O)c2ccccc2N(C)C1c1ccc(C)s1 (stereo not shown) [Compound 67, Allyl 2-(1-methyl-2-(5-methylthiophen-2-yl)-4-oxo-1,4-dihydroquinazolin-3(2H)-yl)benzoate] | – | 4.89 | – |
| Cc1nc(-c2ccc(C3Nc4ccccc4C(=O)N3c3ccccc3)s2)cs1 (stereo not shown) [Compound 21, 2-(5-(2-Methylthiazol-4-yl)thiophen-2-yl)-3-phenyl-2,3-dihydroquinazolin-4(1H)-one] | 109 | – | 0.0 |
| O=C1c2ccccc2NC(c2ccc(-c3ccco3)s2)N1c1ccccc1 (stereo not shown) [Compound 20, 2-(5-(Furan-2-yl)thiophen-2-yl)-3-phenyl-2,3-dihydroquinazolin-4(1H)-one] | 41 | – | 6.5 |
| CCc1ccc(C2N(C)c3ccccc3C(=O)N2c2ccccc2)s1 (stereo not shown) [Compound 41, 2-(5-Ethylthiophen-2-yl)-1-methyl-3-phenyl-2,3-dihydroquinazolin-4(1H)-one] | 173 | – | 0.0 |
| CCc1ccc(C2Nc3ccccc3C(=O)N2c2ccccc2)s1 (stereo not shown) [Compound 7, 2-(5-Ethylthiophen-2-yl)-3-phenyl-2,3-dihydroquinazolin-4(1H)-one] | 120 | – | 13.5 |
| CN1c2ccccc2C(=O)N(c2ccccc2)C1c1ccc(-c2csc(CN=[N+]=[N-])n2)s1 (stereo not shown) [Compound 63, 2-(5-(2-(Azidomethyl)thiazol-4-yl)thiophen-2-yl)-1-methyl-3-phenyl-2,3-dihydroquinazolin-4(1H)-one] | – | 5.30 to 5.52 | – |
| Cc1ccc(C2N(C)c3ccccc3C(=O)N2c2ccccc2)s1 (stereo not shown) [Compound 35, 1-Methyl-2-(5-methylthiophen-2-yl)-3-phenyl-2,3-dihydroquinazolin-4(1H)-one] | 80 | – | – |
| O=C1c2ccccc2NC(c2ccc(Br)s2)N1c1ccccc1 (stereo not shown) [Compound 9, 2-(5-Bromothiophen-2-yl)-3-phenyl-2,3-dihydroquinazolin-4(1H)-one] | 27.9 | 4.86 | – |
| CSc1ccccc1N1C(=O)c2ccccc2N(C)C1c1ccc(C)s1 (stereo not shown) [Compound 57, 1-Methyl-3-(2-(methylthio)phenyl)-2-(5-methylthiophen-2-yl)-2,3-dihydroquinazolin-4(1H)-one] | 25 | 5.42 | – |

| SMILES | R (Stx), protective index (HeLa cells [1]) | pIC50 (HeLa cells [2]) | retrograde transport, % control [3] [%] |
| --- | --- | --- | --- |
| CSc1ccccc1N1C(=O)c2ccccc2NC1c1ccc(C)s1 (stereo not shown) [Compound 31, 3-(2-(Methylthio)phenyl)-2-(5-methylthiophen-2-yl)-2,3-dihydroquinazolin-4(1H)-one] | 99 | – | – |
| Cc1nc(-c2ccc(C3Nc4ccc(F)cc4C(=O)N3c3ccccc3)s2)cs1 (stereo not shown) [Compound 34, 6-Fluoro-2-(5-(2-methylthiazol-4-yl)thiophen-2-yl)-3-phenyl-2,3-dihydroquinazolin-4(1H)-one] | 295 | – | – |
| COCCOc1ccccc1N1C(=O)c2ccccc2N(C)C1c1ccc(C)s1 (stereo not shown) [Compound 68, 3-(2-(2-Methoxyethoxy)phenyl)-1-methyl-2-(5-methylthiophen-2-yl)-2,3-dihydroquinazolin-4(1H)-one] | – | 5.38 | – |
| Cc1ccc(C2N(C)c3ccccc3C(=O)N2c2ccccc2C(=O)O)s1 (stereo not shown) [Compound 69, 2-(1-Methyl-2-(5-methylthiophen-2-yl)-4-oxo-1,4-dihydroquinazolin-3(2H)-yl)benzoic acid] | – | 4.95 | – |
| Cc1ccc(C2N(C)c3ccccc3C(=O)N2c2ccccc2-c2ccccc2)s1 (stereo not shown) [Compound 59, 3-([1,1′-Biphenyl]-2-yl)-1-methyl-2-(5-methylthiophen-2-yl)-2,3-dihydroquinazolin-4(1H)-one] | 27 | 5.43 | – |
| Cc1ccc(C2Nc3ccc(F)cc3C(=O)N2c2ccccc2)s1 (stereo not shown) [Compound 25, 6-Fluoro-2-(5-methylthiophen-2-yl)-3-phenyl-2,3-dihydroquinazolin-4(1H)-one] | 133 | – | – |
| CSc1ccc(C2N(C)c3ccccc3C(=O)N2c2ccccc2)s1 (stereo not shown) [Compound 38, 1-Methyl-2-(5-(methylthio)thiophen-2-yl)-3-phenyl-2,3-dihydroquinazolin-4(1H)-one] | 60 | – | 18.2 |
| O=C1c2ccccc2NC(c2ccc(-c3cccs3)s2)N1c1ccccc1 (stereo not shown) [Compound 18, 2-([2,2′-Bithiophen]-5-yl)-3-phenyl-2,3-dihydroquinazolin-4(1H)-one] | 50 | – | 17.1 |
| Cc1ccc(C2N(C)c3ccccc3C(=O)N2c2ccccc2S(=O)(=O)c2ccccc2)s1 (stereo not shown) [Compound 60, 1-Methyl-2-(5-methylthiophen-2-yl)-3-(2-(phenylsulfonyl)phenyl)-2,3-dihydroquinazolin-4(1H)-one] | 320 | – | – |
| Cc1nc(-c2ccc(C3N(C)c4ccc(F)cc4C(=O)N3c3ccccc3)s2)cs1 (stereo not shown) [Compound 61, 6-Fluoro-1-methyl-2-(5-(2-methylthiazol-4-yl)thiophen-2-yl)-3-phenyl-2,3-dihydroquinazolin-4(1H)-one] | 40 | – | – |
| CN1c2ccccc2C(=O)N(c2ccccc2)C1c1ccc(-c2ccccc2)s1 (stereo not shown) [Compound 36, 1-Methyl-3-phenyl-2-(5-phenylthiophen-2-yl)-2,3-dihydroquinazolin-4(1H)-one] | 29 | – | 7.1 |
| CN1c2ccccc2C(=O)N(c2ccccc2)C1c1ccc(-c2ccoc2)s1 (stereo not shown) [Compound 47, 2-(5-(Furan-3-yl)thiophen-2-yl)-1-methyl-3-phenyl-2,3-dihydroquinazolin-4(1H)-one] | 49 | – | – |
| CN1c2ccccc2C(=O)N(c2ccccc2)C1c1ccc(-c2ccccn2)s1 (stereo not shown) [Compound 37, 1-Methyl-3-phenyl-2-(5-(pyridin-2-yl)thiophen-2-yl)-2,3-dihydroquinazolin-4(1H)-one] | 111 | – | 10.3 |
| Cc1nc(-c2ccc(C3N(C)c4ccc(F)cc4C(=O)N3c3ccccc3C(=O)c3ccccc3)s2)cs1 (stereo not shown) [Compound 66] | – | 6.00 | – |
| CN1c2ccccc2C(=O)N(c2ccccc2)C1c1ccc(Sc2ccccc2)s1 (stereo not shown) [Compound 44, 1-Methyl-3-phenyl-2-(5-(phenylthio)thiophen-2-yl)-2,3-dihydroquinazolin-4(1H)-one] | 71 | – | – |
| Cc1ccc(C2N(C)c3ccccc3C(=O)N2c2ccccc2Cl)s1 (stereo not shown) [Compound 54, 3-(2-Chlorophenyl)-1-methyl-2-(5-methylthiophen-2-yl)-2,3-dihydroquinazolin-4(1H)-one] | 27 | 5.09 | – |
| O=C1c2ccccc2NC(c2ccc(-c3ccccn3)s2)N1c1ccccc1 (stereo not shown) [Compound 19, 3-Phenyl-2-(5-(pyridin-2-yl)thiophen-2-yl)-2,3-dihydroquinazolin-4(1H)-one] | 46 | – | 10.7 |
| O=C1c2ccccc2NC(c2ccc(-c3ccccc3)s2)N1c1ccccc1 (stereo not shown) [Compound 13, 3-Phenyl-2-(5-phenylthiophen-2-yl)-2,3-dihydroquinazolin-4(1H)-one] | 153 | – | 13.1 |
| CN1c2ccc(F)cc2C(=O)N(c2ccccc2)C1c1ccc(-c2csc(CN=[N+]=[N-])n2)s1 (stereo not shown) [Compound 64, 2-(5-(2-(Azidomethyl)thiazol-4-yl)thiophen-2-yl)-6-fluoro-1-methyl-3-phenyl-2,3-dihydroquinazolin-4(1H)-one] | – | > 5.52 | – |

From patent US9540356B2 (priority 2012, dated 2017)
